Consider two molecules from EP0464233A1, “Pharmaceutical combinations against malaria” (priority 1990, dated 1992).

Read-outs that look alike come from different tables or passages of the source.

This assay deals with P. berghei NS (resistant to chlorquine). Briefly: 4-day suppressive test (blood schizontocidal activity), chess-board / isobologram analysis. It is filed as in vivo, Plasmodium berghei. The following applies: for group mean of parasitaemia as of control: male Swiss mice, D + 4, ± standard error; for parasitaemia: Arteether alone, male mouse, Table II (extended doses); for ED50 / ED90: Plasmodium berghei, in Mus musculus, po. The procedure:
The evaluation of blood schizontocidal activities was carried out following the procedure described herein after using the Chloroquine-resistant strain of P. berghei (NS) strain. (Chawira A. N., et al. 1987, Trans, R. Soc. Trop. Med. Hyg. 81 : 554-558).
The methodology followed in the present study was adopted form "4- day suppressive test" (ref. Peters, W.; 1987, Chemotherapy and Drug Resistance in Malaria, Vol. 1, p 111). The experimental data has been analysed by Chess Board Method in the form of an isobologram, (Ref. Chawira A. N., and Warhurst D. C.; 1987, J. Trop. Med. Hyg. 90 : 1-8). ED₅₀ and ED₉₀ was determined using a log-probit method.
Host .. Swiss Mice (20-22 gms) Sex .. Male Parasit .. P. berghei NS (resistant to chlorquine) Route of Infection .. Intravenous Route of drug Administration .. per os
Artheether : A few drops of Kardi oil and Tween^R 80 were added to Arteether to make a paste, followed by 0.5 % Tylose^R (Carboxy methyl cellulose) solution. A homogenous suspension was prepared using a tissue homogenizer in Teflon^R coated glass tube. […] Mefloquine HCl : A solution was prepared in 0.5 % Tylose using a tissue homogenizer.
Drug was administered as follows: (+ 2 H, 24 H, 48 H, 72 H) Each day one dose for 4 days
Slides were drawn from individual mouse and stained with Giemsa on D + 4. The slides were examined under oil immersion lens and parasitaemia was recorded from 15 fields at random. The average of infected and uninfected erythrocytes was determined for each animal. Finally the average parasitaemia of the whole group was determined and considered as 100 % for comparison purposes with the treated group.
At least 5000 to 7500 erythrocytes were examined at random to determine the parasitaemia. In certain cases, where parasitaemia was extremely low 10000 to 15000 erythrocytes were examined.

Molecule `CCO[C@H]1O[C@@H]2O[C@@]3(C)CC[C@H]4[C@H](C)CC[C@@H]([C@H]1C)[C@@]24OO3` [Arteether] showed an ED50 of 2.8 mg/kg and an ED90 of 5.2 mg/kg. For the same molecule, the “group mean of parasitaemia as of control” value (Arteether 0.25 mg/kg X 4, p.o., no Quinine) turned out to be 90 ± 13.9. Further, for the setting “Arteether 0.5 mg/kg X 4, p.o., no Quinine”, the “group mean of parasitaemia as of control” value worked out at 87 ± 10.8. Further, for the setting “Arteether 1.0 mg/kg X 4, p.o., no Quinine”, the “group mean of parasitaemia as of control” value worked out at 84 ± 10.8. Further, the “group mean of parasitaemia as of control” value (Arteether 2.0 mg/kg X 4, p.o., no Quinine) amounted to 77 ± 1.27. Besides, for the setting “Dose 2.0 mg/kg X 4”, the parasitaemia was found to be 82. For the setting “Dose 3.0 mg/kg X 4”, this molecule yielded a parasitaemia of 57. Moreover, where the note is “Dose 4.0 mg/kg X 4”, the parasitaemia was 25. Further, for the setting “Dose 5.0 mg/kg X 4”, the parasitaemia was 12. Also, the ED50 (read-out: ED50 of Arteether) worked out at 2.8 mg/kg. Also, the ED90 (read-out: ED90 of Arteether) amounted to 5.2 mg/kg.
In the case of `C=C[C@H]1C[N@@]2CC[C@H]1C[C@H]2[C@H](O)c1ccnc2ccc(OC)cc12` [Quinine], the ED50 (read-out: ED50 of Quinine) turned out to be 61 mg/kg. Also, the ED90 (read-out: ED90 of Quinine) came out at 110 mg/kg. Moreover, the “group mean of parasitaemia as of control” value was found to be 92 ± 2.36 (Quinine 25 mg/kg X 4, p.o., no Arteether); 85 ± 5.8 (Quinine 37.5 mg/kg X 4, p.o., no Arteether); 70 ± 11.8 (Quinine 50 mg/kg X 4, p.o., no Arteether).

In general, ED50 refers to the dose at which the effect has come halfway, by size or by number of responders.
